Active and inactive are the calls of the source. The calls are words filed in the database; no cut-off is given here.
Tests used:
[1] = system: NG108-15; assay: Intrinsic agonist activity at delta opioid receptor in mouse/rat NG108-15 cells assessed as increase in ERK1/2 phosphorylation at 1 to 50 uM incubated for 20 mins by Western blot method; format: cell-based
[2] = organism: Mus musculus; assay: Selectivity index, ratio of Ki for mu opioid receptor in mouse brain membranes to Ki for delta opioid receptor in mouse brain membranes; format: cell membranes
[3] = molecular target: Mu-type opioid receptor (Mus musculus, UniProt P42866); assay: Displacement of [3H]DAMGO from mu opioid receptor in mouse brain membranes by liquid scintillation counting method; format: cell membranes, Membrane
[4] = molecular target: Delta-type opioid receptor (Mus musculus) (UniProt P32300); assay: Agonist activity at delta opioid receptor in mouse vas deferens assessed as reduction in electric field stimulation-induced twitch contractions amplitude
[5] = molecular target: Delta-type opioid receptor (Mus musculus) (UniProt P32300); assay: Agonist activity at delta opioid receptor in mouse vas deferens assessed as reduction in electric field stimulation-induced twitch contractions amplitude in presence of 1 nM natrindole
[6] = organism: Mus musculus; assay: Selectivity index, ratio of Ki for kappa opioid receptor in mouse brain membranes to Ki for delta opioid receptor in mouse brain membranes; format: cell membranes
[7] = molecular target: Delta-type opioid receptor (Mus musculus) (UniProt P32300); assay: Agonist activity at delta opioid receptor in mouse vas deferens assessed as reduction in electric field stimulation-induced twitch contractions amplitude relative to control
[8] = molecular target: Delta-type opioid receptor (Mus musculus, UniProt P32300); assay: Displacement of [3H]DPDPE from delta opioid receptor in mouse brain membranes by liquid scintillation counting method; format: cell membranes, Membrane
[9] = molecular target: Kappa-type opioid receptor (Mus musculus, UniProt P33534); assay: Displacement of [3H]U-69,593 from kappa opioid receptor in mouse brain membranes by liquid scintillation counting method; format: cell membranes, Membrane
[10] = system: NG108-15; assay: Intrinsic agonist activity at delta opioid receptor in mouse/rat NG108-15 cells assessed as increase in ERK1/2 phosphorylation at 50 nM pre-treated with 500 nM opioid antagonist naloxone for 5 mins followed by compound exposure for 20 mins by Western blot method; format: cell-based
[11] = system: NG108-15; assay: Intrinsic agonist activity at delta opioid receptor in mouse/rat NG108-15 cells assessed as increase in ERK1/2 phosphorylation At 1 nM pre-treated with 500 nM opioid antagonist naloxone for 5 mins followed by compound exposure for 20 mins by Western blot method; format: cell-based
[12] = system: NG108-15; assay: Intrinsic agonist activity at delta opioid receptor in mouse/rat NG108-15 cells assessed as increase in ERK1/2 phosphorylation at 0.1 to 5 uM incubated for 20 mins by Western blot method; format: cell-based
[13] = system: NG108-15; assay: Intrinsic agonist activity at delta opioid receptor in mouse/rat NG108-15 cells assessed as increase in ERK1/2 phosphorylation At 5 nM pre-treated with 500 nM opioid antagonist naloxone for 5 mins followed by compound exposure for 20 mins by Western blot method; format: cell-based
[14] = system: NG108-15; assay: Toxicity in mouse/rat NG108-15 cells; format: cell-based
[15] = system: NG108-15; assay: Intrinsic agonist activity at delta opioid receptor in mouse/rat NG108-15 cells assessed as increase in ERK1/2 phosphorylation at 10 nM pre-treated with 500 nM opioid antagonist naloxone for 5 mins followed by compound exposure for 20 mins by Western blot method; format: cell-based
[16] = system: NG108-15; assay: Intrinsic agonist activity at delta opioid receptor in mouse/rat NG108-15 cells assessed as increase in ERK1/2 phosphorylation at 0.1 to 100 uM iincubated for 20 mins by Western blot method; format: cell-based
[17] = system: NG108-15; assay: Intrinsic agonist activity at delta opioid receptor in mouse/rat NG108-15 cells assessed as increase in ERK1/2 phosphorylation by Western blot method; format: cell-based; conditions: TDE = time-dependent effect

Chain of Delta-type opioid receptor (P32300 whole entry): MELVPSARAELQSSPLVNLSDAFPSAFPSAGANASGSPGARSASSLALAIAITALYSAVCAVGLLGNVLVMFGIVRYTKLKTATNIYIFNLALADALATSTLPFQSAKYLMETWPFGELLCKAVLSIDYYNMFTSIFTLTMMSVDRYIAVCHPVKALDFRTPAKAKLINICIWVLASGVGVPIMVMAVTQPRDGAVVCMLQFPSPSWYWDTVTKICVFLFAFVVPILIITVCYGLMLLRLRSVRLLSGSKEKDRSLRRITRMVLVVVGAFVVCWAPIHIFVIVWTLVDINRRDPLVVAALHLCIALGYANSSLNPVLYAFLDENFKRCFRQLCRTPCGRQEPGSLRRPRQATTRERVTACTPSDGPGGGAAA
Chain of Delta-type opioid receptor (Mus musculus) (P32300 whole entry): as above
Chain of Mu-type opioid receptor (P42866 whole entry): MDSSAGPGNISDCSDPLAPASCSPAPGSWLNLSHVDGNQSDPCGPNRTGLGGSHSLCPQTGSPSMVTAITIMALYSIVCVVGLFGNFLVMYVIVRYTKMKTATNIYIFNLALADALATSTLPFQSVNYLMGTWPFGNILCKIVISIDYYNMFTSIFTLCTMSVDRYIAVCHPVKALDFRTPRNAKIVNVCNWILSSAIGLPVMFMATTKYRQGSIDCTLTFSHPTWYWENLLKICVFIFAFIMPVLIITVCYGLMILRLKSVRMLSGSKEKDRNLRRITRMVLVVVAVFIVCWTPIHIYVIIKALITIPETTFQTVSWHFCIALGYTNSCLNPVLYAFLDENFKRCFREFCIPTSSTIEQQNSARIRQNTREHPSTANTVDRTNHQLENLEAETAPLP
Chain of Kappa-type opioid receptor (P33534 whole entry): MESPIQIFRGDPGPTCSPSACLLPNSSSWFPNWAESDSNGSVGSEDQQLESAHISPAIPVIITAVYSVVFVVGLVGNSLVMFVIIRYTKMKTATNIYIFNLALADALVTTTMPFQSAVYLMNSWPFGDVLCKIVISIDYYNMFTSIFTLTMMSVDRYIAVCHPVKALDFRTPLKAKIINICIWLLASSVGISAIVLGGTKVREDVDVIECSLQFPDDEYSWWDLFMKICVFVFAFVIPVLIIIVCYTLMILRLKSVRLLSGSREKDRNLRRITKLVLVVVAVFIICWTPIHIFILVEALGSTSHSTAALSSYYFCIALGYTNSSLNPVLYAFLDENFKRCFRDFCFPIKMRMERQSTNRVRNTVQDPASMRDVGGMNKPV

SMILES | Activity [1] | Ratio Ki [2] | Ki [3] [nM] | Activity [4] | Activity [5] | Ratio Ki [6] | Imax [7] [%] | Ki [8] [nM] | Ki [9] [nM] | Activity [10] | Activity [11] | Activity [12] | Activity [13] | Activity [14] | Activity [15] | Activity [16] | Activity [17]
C=CCN1CC2CC(C1)N2C(c1ccc(C(=O)N(CC)CC)cc1)c1cccc(OC)c1 (racemic) | Active | 653 | 1150 | Active | inactive | 2270 | 90 | 1.76 | 4000 | – | – | – | – | – | – | – | –
C=CCN1C2CCCC1CN(C(c1ccc(C(=O)N(CC)CC)cc1)c1cccc(OC)c1)CC2 (mixture of isomers) | Active | 104 | 950 | Active | inactive | 467 | 90 | 9.1 | 4250 | Active | – | – | – | – | – | – | –
C=CCN1C2CCC1CN(C(c1ccc(C(=O)N(CC)CC)cc1)c1cccc(OC)c1)CC2 (mixture of isomers) | – | 99.5 | 183 | – | – | 1330 | – | 1.84 | 2450 | – | Active | Active | – | – | – | – | –
C=CCN1CC2CCC(C1)N2C(c1ccc(C(=O)N(CC)CC)cc1)c1cccc(OC)c1 (racemic) | – | 11300 | 3830 | Active | inactive | 882 | 90 | 0.34 | 300 | – | – | Active | Active | – | – | – | –
C=CCN1C[C@H](C)N([C@H](c2ccc(C(=O)N(CC)CC)cc2)c2cccc(OC)c2)C[C@H]1C [SNC-80] | – | – | – | Active | inactive | – | – | – | – | – | – | – | – | Toxic | inactive | Dose-dependent effect | tde
C=CCN1CC2CCCC(C1)N2C(c1ccc(C(=O)N(CC)CC)cc1)c1cccc(OC)c1 (racemic) | Active | 1210 | 2270 | – | – | 1170 | – | 1.88 | 2200 | Active | – | – | – | – | – | – | –

From ChEMBL document CHEMBL3603739, “Novel diazabicycloalkane delta opioid agonists” (Bioorg Med Chem, 2015)
